Measurements: PubChem BioAssay (NCI)
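All cell lines were grown in 96-well plates and treated with compound for 48 hours. TGI denotes the concentration required for complete inhibition of growth.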

Key:
Experiment in all cases: DTP human tumour cell line panel, 48 h
SW-620 colon = tested on: SW-620 colon
OVCAR-8 ovarian = tested on: OVCAR-8 ovarian
SK-MEL-2 melanoma = tested on: SK-MEL-2 melanoma
MDA-N = tested on: MDA-N
MOLT-4 leukemia = tested on: MOLT-4 leukemia
MALME-3M melanoma = tested on: MALME-3M melanoma
TK-10 renal = tested on: TK-10 renal
NCI-H460 lung = tested on: NCI-H460 lung
HCT-15 colon = tested on: HCT-15 colon
MDA-MB-435 = tested on: MDA-MB-435
A498 renal = tested on: A498 renal
EKVX NSCLC = tested on: EKVX NSCLC
SF-295 CNS = tested on: SF-295 CNS
U251 CNS = tested on: U251 CNS
SNB-19 CNS = tested on: SNB-19 CNS
SK-MEL-28 melanoma = tested on: SK-MEL-28 melanoma
MCF7 breast = tested on: MCF7 breast
ACHN renal = tested on: ACHN renal
SR leukemia = tested on: SR leukemia
UACC-62 melanoma = tested on: UACC-62 melanoma
786-0 renal = tested on: 786-0 renal
RXF 393 renal = tested on: RXF 393 renal
HCT-116 colon = tested on: HCT-116 colon
SF-268 CNS = tested on: SF-268 CNS
HS 578T breast = tested on: HS 578T breast
OVCAR-3 ovarian = tested on: OVCAR-3 ovarian
SF-539 CNS = tested on: SF-539 CNS
NCI-H226 lung = tested on: NCI-H226 lung
LOX IMVI melanoma = tested on: LOX IMVI melanoma
SK-OV-3 ovarian = tested on: SK-OV-3 ovarian
MDA-MB-231 breast = tested on: MDA-MB-231 breast
OVCAR-4 ovarian = tested on: OVCAR-4 ovarian
NCI/ADR-RES ovarian = tested on: NCI/ADR-RES ovarian
HT29 colon = tested on: HT29 colon
UO-31 renal = tested on: UO-31 renal
IGROV1 ovarian = tested on: IGROV1 ovarian
T-47D breast = tested on: T-47D breast
A549 NSCLC = tested on: A549 NSCLC
SK-MEL-5 melanoma = tested on: SK-MEL-5 melanoma
NCI-H23 lung = tested on: NCI-H23 lung
UACC-257 melanoma = tested on: UACC-257 melanoma
COLO 205 colon = tested on: COLO 205 colon
HOP-92 NSCLC = tested on: HOP-92 NSCLC
HL-60(TB) leukemia = tested on: HL-60(TB) leukemia
NCI-H522 lung = tested on: NCI-H522 lung
PC-3 prostate = tested on: PC-3 prostate
SN12C renal = tested on: SN12C renal
KM12 colon = tested on: KM12 colon
K-562 leukemia = tested on: K-562 leukemia
DU-145 prostate = tested on: DU-145 prostate
OVCAR-5 ovarian = tested on: OVCAR-5 ovarian
SNB-75 CNS = tested on: SNB-75 CNS
HOP-62 NSCLC = tested on: HOP-62 NSCLC
M14 melanoma = tested on: M14 melanoma
CAKI-1 renal = tested on: CAKI-1 renal
BT-549 breast = tested on: BT-549 breast
RPMI-8226 leukemia = tested on: RPMI-8226 leukemia
CCRF-CEM leukemia = tested on: CCRF-CEM leukemia
HCC-2998 colon = tested on: HCC-2998 colon

Measured: TGI

C[C@]12C=CC(=O)C=C1CC[C@@H]1[C@@H]2C(=O)C[C@@]2(C)[C@H]1CC[C@]2(O)C(=O)CO
> 100 µM: SW-620 colon | OVCAR-8 ovarian | SK-MEL-2 melanoma | MDA-N | MOLT-4 leukemia | MALME-3M melanoma | TK-10 renal | NCI-H460 lung | HCT-15 colon | MDA-MB-435 | A498 renal | EKVX NSCLC | SF-295 CNS | U251 CNS | SNB-19 CNS | SK-MEL-28 melanoma | MCF7 breast | ACHN renal | SR leukemia | UACC-62 melanoma | 786-0 renal | RXF 393 renal | HCT-116 colon | SF-268 CNS | HS 578T breast | OVCAR-3 ovarian | SF-539 CNS | NCI-H226 lung | LOX IMVI melanoma | SK-OV-3 ovarian | MDA-MB-231 breast | OVCAR-4 ovarian | NCI/ADR-RES ovarian | HT29 colon | UO-31 renal | IGROV1 ovarian | T-47D breast | A549 NSCLC | SK-MEL-5 melanoma | NCI-H23 lung | UACC-257 melanoma | COLO 205 colon | HOP-92 NSCLC | HL-60(TB) leukemia | NCI-H522 lung | PC-3 prostate | SN12C renal | KM12 colon | K-562 leukemia | DU-145 prostate | OVCAR-5 ovarian | SNB-75 CNS | HOP-62 NSCLC | M14 melanoma | CAKI-1 renal | BT-549 breast | RPMI-8226 leukemia | CCRF-CEM leukemia | HCC-2998 colon
